Patent US12187713B2, “Immunomodulators, compositions and methods thereof” (Betta Pharmaceuticals Co., Ltd, priority 2019, dated 2025)

Assays:
[1] = Pharmacokinetic Assay, single oral dose 5 mg/kg (Table 12); assay type: in vivo; settings: mouse, plasma concentration, C57 female mice, single oral dose 5 mg/kg
Description: Adult C57 female mice were received to single-dose of the test compounds with 15% DMSO, 10% Kolliphor^@HS 15 and 75% saline as excipients, the mice (n=3) were giving oral administration (intragastric administration) with the compounds at a dose of 5 mg/kg. Time of blood collection: 30 min, 2 h, 4 h. approximately 0.1 mL of whole blood was collected from retro-orbital venous plexus, and placed into tubes that contained K2-EDTA as an anticoagulant. The whole blood were centrifuged at 4° C. and 4000 rpm for 10 min. The plasma was transferred into centrifuge tubes, and stored at −20° C. until being analyzed. Concentrations of test compounds in the plasma samples were analyzed with liquid chromatography-tandem mass spectrometry (LC-MS/MS). Plasma concentration-time data of individual animals was analyzed using Microsoft Excel 2010.

[2] = molecular target: PD-1/PD-L1 (Homo sapiens (Human), UniProt Q9NZQ7); test: PD-1/PD-L1 Binding Assay (Alphascreen)
How it was run: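 PD-1/PD-L1 binding detected by anti-6×His acceptor and streptavidin donor beads after 120 min in the dark at 25 °C. Beforehand, the two proteins were incubated 15 min at 25 °C with inhibitor at 0.015–300 nM (1% DMSO). IC50 comes from a log concentration–response curve.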

PD-1/PD-L1, sequence (Q9NZQ7 19-238): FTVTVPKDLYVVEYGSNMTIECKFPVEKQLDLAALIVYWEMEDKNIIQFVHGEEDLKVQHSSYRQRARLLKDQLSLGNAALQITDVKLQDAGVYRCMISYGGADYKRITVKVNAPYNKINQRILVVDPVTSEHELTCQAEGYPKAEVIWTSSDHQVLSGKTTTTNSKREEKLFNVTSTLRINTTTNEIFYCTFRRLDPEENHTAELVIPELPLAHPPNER

Row | SMILES | concentration at 0.5 h [1] [ng/mL] | concentration at 2 h [1] [ng/mL] | concentration at 4 h [1] [ng/mL] | IC50 ([2]; range symbols) [nM] | IC50 ([2]; numeric values) [nM]
1 | COc1nc(-c2cccc(-c3cccc(-c4nc5cc(CN6CCC[C@H]6C(=O)O)c(OC(F)F)cc5o4)c3C)c2C)ccc1CN1CCC(C)(C)C1 [Example 294, ((6-(difluoromethoxy)-2-(3′-(5-((3,3-dimethylpyrrolidin-1-yl)methyl)-6-methoxypyridin-2-yl)-2,2′-dimethyl-[1,1′-biphenyl]-3-yl)benzo[d]oxazol-5-yl)methyl)-L-proline] | 80.4 | 193 | 186 | 0.1 to 5 | 
2 | Cc1c(-c2ccc(CN3CC[C@H](COCc4ccccc4)C3)c(F)c2)cccc1-c1cccc(-c2nc3cc(CN4CCC[C@H]4C(=O)O)c(OC(F)F)cc3o2)c1C [Example 252, ((2-(4″-(((S)-3-((benzyloxy)methyl)pyrrolidin-1-yl)methyl)-3″-fluoro-2,2′-dimethyl-[1,1′:3′,1″- terphenyl]-3-yl)-6-(difluoromethoxy)benzo[d]oxazol-5-yl)methyl)proline] | 694 | 2870 | 4150 | 0.1 to 5 | 
3 | Cc1c(-c2ccc(CN3CC(C)(C)C3)c(F)c2)cccc1-c1cccc(-c2nc3cc(CN4CCC[C@H]4C(=O)O)c(OC(F)F)cc3o2)c1C [Example 237, ((6-(difluoromethoxy)-2-(4″-((3,3-dimethylazetidin-1-yl)methyl)-3″-fluoro-2,2′-dimethyl-[1,1′:3′,1″-terphenyl]-3-yl)benzo[d]oxazol-5-yl)methyl)-L-proline] | 58.5 | 178 | 186 |  | 2.7
4 | Cc1c(-c2ccc(CN3Cc4ccccc4C3)c(F)c2)cccc1-c1cccc(-c2nc3cc(CN4CCC[C@H]4C(=O)O)c(OC(F)F)cc3o2)c1C [Example 241, ((6-(difluoromethoxy)-2-(3″-fluoro-4″- (isoindolin-2-ylmethyl)-2,2′-dimethyl-[1,1′:3′,1″-terphenyl]-3-yl)benzo[d]oxazol-5-yl)methyl)proline] | 102 | 234 | 294 | 5 to 50 | 
5 | Cc1c(-c2nc3cc(CN4CCC[C@H]4C(=O)O)c(OC(F)F)cc3o2)cccc1-c1cccc(-c2nc3cc(CN4CCC(C#N)C4)cc(C#N)c3o2)c1C (stereo partly drawn) [Example 142, ((2-(3′-(7-cyano-5-((3-cyanopyrrolidin-1-yl)methyl)benzo[d]oxazol-2-yl)-2,2′-dimethyl-[1,1′-biphenyl]-3-yl)-6-(difluoromethoxy)benzo[d]oxazol-5-yl)methyl)-L-proline] | 211 | 243 | 171 | 0.1 to 5 | 
6 | Cc1c(-c2ccc(CN3CC[C@@H](c4ccccc4)C3)c(F)c2)cccc1-c1cccc(-c2nc3cc(CN4CCC[C@H]4C(=O)O)c(OC(F)F)cc3o2)c1C [Example 248, ((6-(difluoromethoxy)-2-(3″-fluoro-2,2′-dimethyl-4″-(((S)-3-phenylpyrrolidin-1-yl)methyl)-[1,1′:3′,1″-terphenyl]-3-yl)benzo[d]oxazol-5-yl)methyl)proline] | 89 | 271 | 369 | 5 to 50 | 
7 | Cc1c(COc2cc(OCc3cncc(OC(F)F)c3)c(CN3CCC(F)C3)cc2Cl)cccc1-c1cccc(-c2nc3cc(CN4CCC[C@H]4C(=O)O)c(OC(F)F)cc3o2)c1C (stereo partly drawn) [Example 209, ((2-(3′-((2-chloro-5-((5-(difluoromethoxy)pyridin-3-yl)methoxy)-4-((3-fluoropyrrolidin-1-yl)methyl)phenoxy)methyl)-2,2′-dimethyl-[1,1′-biphenyl]-3-yl)-6-(difluoromethoxy)benzo[d]oxazol-5-yl)methyl)-L-proline] | 21.4 | 54.9 | 19.2 |  | 1.4

Further lines, results first:

Row | concentration at 0.5 h [1] [ng/mL] | concentration at 2 h [1] [ng/mL] | concentration at 4 h [1] [ng/mL] | IC50 ([2]; range symbols) [nM] | IC50 ([2]; numeric values) [nM] | SMILES
8 | 428 | 792 | 527 | > 50 |  | Cc1c(-c2nc3c(o2)CCN(CC(F)F)C3)cccc1-c1cccc(-c2nc3cc(CN4CCC[C@H]4C(=O)O)c(OC(F)F)cc3o2)c1C [Example 201, ((2-(3′-(5-(2,2-difluoroethyl)-4,5,6,7-tetrahydrooxazolo[4,5-c]pyridin-2-yl)-2,2′-dimethyl-[1,1′-biphenyl]-3-yl)-6-(difluoromethoxy)benzo[d]oxazol-5-yl)methyl)proline]
9 | 68.6 | 155 | 81.1 |  | 25 | Cc1c(-c2nc3cc(CNCC(O)C(F)(F)F)c(OC(F)F)cc3o2)cccc1-c1cccc(-c2nc3cc(CN4CCC[C@H]4C(=O)O)c(OC(F)F)cc3o2)c1C (stereo partly drawn) [Example 22, ((6-(difluoromethoxy)-2-(3′-(6-(difluoromethoxy)-5-(((3,3,3-trifluoro-2-hydroxypropyl)amino)methyl)benzo[d]oxazol-2-yl)-2,2′-dimethyl-[1,1′-biphenyl]-3-yl)benzo[d]oxazol-5-yl)methyl)-L-proline]
10 | 27.9 | 212 | 89.2 | > 50 |  | Cc1c(-c2nc3cc(CN4CCC[C@H]4C(=O)O)c(OC(F)F)cc3o2)cccc1-c1cccc(-c2nc3cc(CN4CCCC4)c(F)c(F)c3n2CC(F)(F)F)c1C [Example 299, ((2-(3′-(6,7-difluoro-5-(pyrrolidin-1-ylmethyl)-1-(2,2,2-trifluoroethyl)-1H-benzo[d]imidazol-2-yl)-2,2′-dimethyl-[1,1′-biphenyl]-3-yl)-6-(difluoromethoxy)benzo[d]oxazol-5-yl)methyl)-L-proline]
11 |  | 137 | 111 |  | 1.8 | Cc1c(-c2nc3cc(CN4CCCC4)c(OC(F)F)cc3o2)cccc1-c1cccc(-c2nc3cc(CN4CCC[C@@H]4C(=O)O)c(OC(F)F)cc3o2)c1C [Example 66, ((6-(difluoromethoxy)-2-(3′-(6-(difluoromethoxy)-5-(pyrrolidin-1-ylmethyl)benzo[d]oxazol-2-yl)-2,2′-dimethyl-[1,1′-biphenyl]-3-yl)benzo[d]oxazol-5-yl)methyl)-D-proline]
12 | 79.3 | 241 | 301 |  | 26 | Cc1c(-c2nc3cc(CN4CCOCC4)c(OC(F)F)cc3o2)cccc1-c1cccc(-c2nc3cc(CN4CCC[C@H]4C(=O)O)c(OC(F)F)cc3o2)c1C [Example 13, ((6-(difluoromethoxy)-2-(3′-(6-(difluoromethoxy)-5-(morpholinomethyl)benzo[d]oxazol-2-yl)-2,2′-dimethyl-[1,1′-biphenyl]-3-yl)benzo[d]oxazol-5-yl)methyl)-L-proline]
13 | 87.2 | 261 | 285 |  | 1.8 | COc1nc(-c2cccc(-c3cccc(-c4nc5cc(CN6CCC[C@H]6C(=O)O)c(OC(F)F)cc5o4)c3C)c2C)ccc1CN1CC[C@H](C)C1 [Example 246, ((6-(difluoromethoxy)-2-(3′-(6-methoxy-5-(((S)-3-methylpyrrolidin-1-yl)methyl)pyridin-2-yl)-2,2′-dimethyl-[1,1′-biphenyl]-3-yl)benzo[d]oxazol-5-yl)methyl)-L-proline]
